Source: patent US20260008746A1, “CATIONIC LIPID COMPOUND WITH HIGH EFFICIENCY, LOW TOXICITY AND STABLE EXPRESSION, AND COMPOSITION COMPRISNG SAME” (HANGZHOU TIANLONG PHARMACEUTICAL CO., LTD, priority 2023, published 2026)

Experiments:
293T cells [1] = test: Fluorescent detection of Fluc-mRNA (cell transfection efficiency of LNP formulations); assay type: cell-based; details: for Relative light unit (RLU): LNP formulation containing 0.3 μg Fluc-mRNA, 96-well plate, 24 hours; for Multiples (YK-101): RLU of YK-101 / RLU of named substance; for Multiples (YK-108): RLU of YK-108 / RLU of named substance; for Ratio relative to SM-102: RLU of named substance / RLU of SM-102; for Multiples (YK-107): RLU of YK-107 / RLU of named substance; for fluorescence absorption value, times that of HHMA: RLU of named substance / RLU of HHMA; for fluorescence absorption value, times that of Lipofectamine 3000: RLU of named substance / RLU of Lipofectamine 3000; for Fluc-mRNA expression signal intensity, times that of compound 21: RLU of named substance / RLU of compound 21; for fluorescence absorption value, times that of compound 23: RLU of named substance / RLU of compound 23
Experimental: (§1) Cell recovery and passage: 293T cells were recovered, cultured in a culture dish, and passaged to the required number of cells.
(§2) Seeding plate: The cells in the culture dish were digested and counted. Cells were spread in a 96-well plate at 10,000 cells per well and in a 12-well plate at 150,000 cells per well. Cells were cultured overnight until the cells adhered to the wall.
Cell recovery and passage: the method was the same as in Example 3.
Seeding plate: the method was the same as in Example 3.
An LNP formulation containing 0.3 μg of Fluc-mRNA (the carrier components of the LNP formulation were cationic lipid, neutral lipid, structured lipid and polymer-conjugated lipid with a molar ratio of 49:10:39.5:1.5, wherein the cationic lipid was listed in Table 1) was added to the cell culture medium of a 96-well plate, and further incubated for 24 hours. The corresponding reagent was added according to the instructions of the Gaussia Luciferase Assay Kit, and the fluorescence expression intensity of each well was detected by an IVIS fluorescence detection system. This test verified the transfection efficiencies of LNP formulations in cells, see Tables 3-6 for specific test results.

293T cells [2] = test: Cell survival rate determination (CCK-8); assay type: cell-based; details: for Cell survival rate (%): LNP formulation containing 1.5 μg Fluc-mRNA, 24 hours, CCK-8, absorbance at 450 nm; for cell survival rate lower than that of YK-101: cell survival rate of YK-101 minus that of named substance; for cell survival rate lower than that of YK-107: cell survival rate of YK-107 minus that of named substance; for cell survival rate lower than that of YK-108: cell survival rate of YK-108 minus that of named substance
Experimental: as §1, §2
An LNP formulation containing 1.5 μg of Fluc-mRNA (the cater component of the LNP formulation were cationic lipid, neutral lipid, structured lipid and polymer-conjugated lipid with a molar ratio of 49: 10: 39.5: 1.5, wherein the cationic lipid was listed in Table 1) and the formulation of Lipofectamine 3000 were added to the cell culture medium of a 96-well plate, and further cultivated for 24 hours. 10 μL of CCK-8 solution was then added to each well, and the culture plate was incubated in an incubator for 1 hour. The absorbance at 450 nm was measured by a microplate reader.

BALB/C mice = test: In vivo imaging of Fluc-mRNA expression in mice delivered by LNP formulations
Experimental: The LNP formulation containing […] Fluc-mRNA was injected intramuscularly into female BALB/C mice aged 4-6 weeks old and weighed 17-19 g, and the mice were intraperitoneally injected with fluorescent imaging substrate at specific time points after administration (6h, 24 h, 48h and 7d), where the mice were allowed to move freely for 5 minutes, and then the average radiation intensity (corresponding to fluorescence expression intensity) of the protein expression of the mRNA carried by the LNP in the mice was detected by the IVIS Spectrum small animal in vivo imaging device. The test results are shown in Tables 11 to 14 and FIGS. 12 to 14.

SMILES	Relative light unit (RLU) (293T cells [1])	Multiples (YK-101) (293T cells [1])	Multiples (YK-108) (293T cells [1])	Ratio relative to SM-102 (293T cells [1])	Cell survival rate (%) (293T cells [2])	cell survival rate lower than that of YK-101 (293T cells [2]) [%]	cell survival rate lower than that of YK-107 (293T cells [2]) [%]	cell survival rate lower than that of YK-108 (293T cells [2]) [%]	Multiples (YK-107) (293T cells [1])	fluorescence absorption value, times that of HHMA (293T cells [1]) [times]	fluorescence absorption value, times that of Lipofectamine 3000 (293T cells [1]) [times]	Fluc-mRNA expression signal intensity, times that of compound 21 (293T cells [1]) [times]	fluorescence absorption value, times that of compound 23 (293T cells [1]) [times]	further results
CCCCCCCCCCOC(=O)CCCN(CCCO)CCCCCC(=O)OCCC(CCCCCC)CCCCCC [YK-102, 3-hexylnonyl-6-(4-(decyloxy)-4-oxobutyl)((3-hydroxypropyl)amino)hexanoate]	1464032	13.89	16.84	0.95	51.82	38.30	38.63	38.04						average radiation intensity of YK-101, times that of named substance (BALB/C mice; 6 h): 2.3 times; average radiation intensity of YK-107, times that of named substance (BALB/C mice; 6 h): 2.5 times; average radiation intensity of YK-108, times that of named substance (BALB/C mice; 6 h): 3.1 times; average radiation intensity of YK-101, times that of named substance (BALB/C mice; 24 h): 10.5 times; average radiation intensity of YK-107, times that of named substance (BALB/C mice; 24 h): 13.0 times; average radiation intensity of YK-108, times that of named substance (BALB/C mice; 24 h): 14.0 times; average radiation intensity of YK-101, times that of named substance (BALB/C mice; 48 h): 6.1 times; average radiation intensity of YK-107, times that of named substance (BALB/C mice; 48 h): 7.4 times; average radiation intensity of YK-108, times that of named substance (BALB/C mice; 48 h): 7.6 times; average radiation intensity of YK-101, times that of named substance (BALB/C mice; 7 d): 1.9 times; average radiation intensity of YK-107, times that of named substance (BALB/C mice; 7 d): 2.1 times; average radiation intensity of YK-108, times that of named substance (BALB/C mice; 7 d): 2.2 times; average radiation intensity, 6 h (BALB/C mice; LNP containing 10 pg Fluc-mRNA, intramuscular, female BALB/C mice, 6 h): 652680; average radiation intensity, 24 h (BALB/C mice; LNP containing 10 pg Fluc-mRNA, intramuscular, female BALB/C mice, 24 h): 100422; average radiation intensity, 48 h (BALB/C mice; LNP containing 10 pg Fluc-mRNA, intramuscular, female BALB/C mice, 48 h): 30507; average radiation intensity, 7 d (BALB/C mice; LNP containing 10 pg Fluc-mRNA, intramuscular, female BALB/C mice, 7 d): 6477
CCCCCCCCCCOC(=O)CCCN(CCCCCC(=O)OCCC(CCCCCC)CCCCCC)C[C@H](C)O [YK-117, 3-hexylnonyl 6-(4-(decyloxy)-4-oxobutyl)(((S)2-hydroxypropyl)amino)hexanoate]	695716	29.23	35.45	0.45	57.93	32.19	32.52	31.93	32.14	0.34	0.65	0.50	0.54	cell transfection efficiency, times that of YK-118 (293T cells [1]): 33 times; cell transfection efficiency, times that of YK-119 (293T cells [1]): 80 times
CCCCCCCCCCOC(=O)CCCN(CCCCCC(=O)OCCC(CCCCCC)CCCCCC)CCC(C)O (stereo not drawn) [YK-118, 3-hexylnonyl 6-(4-(decyloxy)-4-oxobutyl)((3-hydroxybutyl)amino)hexanoate]	21310		1157.23	0.0139	63.33	26.79	27.12	26.53	1049.33	0.0104	0.0199	0.0153	0.0165	
